Experimental data taken from ChEMBL document CHEMBL5104211, “Design and synthesis of bile acid derivatives and their activity against colon cancer” (RSC Med Chem, 2022).

What was measured:
[1] = test system: RAW264.7; test: Anti-inflammatory activity against mouse RAW264.7 cells assessed as inhibition of LPS-induced NO production incubated for 24 hrs in presence of LPS by Griess reagent-based assay; assay type: functional, cell-based; details: RAW264.7, 24 h
[2] = test system: RAW264.7; test: Anti-inflammatory activity against mouse RAW264.7 cells assessed as downregulation of LPS-induced TNF-alpha level at 10 to 25 micromol/L incubated for 24 hrs in presence of LPS by ELISA; assay type: functional, cell-based; details: dose 10-25 µmol/L, DDE = dose-dependent effect
[3] = test system: Huh-7; test: Anticancer activity against human Huh-7 cells assessed as inhibition of cell proliferation by MTT assay; assay type: functional, cell-based
[4] = test system: RKO; test: Anticancer activity against human RKO cells assessed as inhibition of cell proliferation by MTT assay; assay type: functional, cell-based
[5] = test system: HCT-116; test: Anticancer activity against human HCT-116 cells assessed as inhibition of cell proliferation by MTT assay; assay type: functional, cell-based
[6] = Cytotoxicity against human WI-38 cells assessed as inhibition of cell proliferation by MTT assay; assay type: toxicity, cell-based
[7] = test system: RAW264.7; test: Anti-inflammatory activity against mouse RAW264.7 cells assessed as inhibition of LPS-induced NO production at 10 micromol/L incubated for 24 hrs in presence of LPS by Griess reagent-based assay; assay type: functional; details: RAW264.7, 24 h, dose 10 µmol/L
[8] = test system: RAW264.7; test: Anti-inflammatory activity against mouse RAW264.7 cells assessed as inhibition of LPS-induced NO production at 25 micromol/L incubated for 24 hrs in presence of LPS by Griess reagent-based assay; assay type: functional; details: RAW264.7, 24 h, dose 25 µmol/L
[9] = test system: HT-29; test: Anticancer activity against human HT-29 cells assessed as inhibition of cell proliferation by MTT assay; assay type: functional, cell-based
[10] = test system: SK-HEP1; test: Anticancer activity against human SK-HEP1 cells assessed as inhibition of cell proliferation by MTT assay; assay type: functional, cell-based
[11] = test system: MGC-803; test: Anticancer activity against human MGC-803 cells assessed as inhibition of cell proliferation by MTT assay; assay type: functional, cell-based
[12] = test system: SW480; test: Anticancer activity against human SW480 cells assessed as inhibition of cell proliferation by MTT assay; assay type: functional, cell-based
[13] = test system: A549; test: Anticancer activity against human A549 cells assessed as inhibition of cell proliferation by MTT assay; assay type: functional, cell-based
[14] = test system: LoVo; test: Anticancer activity against human LoVo cells assessed as inhibition of cell proliferation by MTT assay; assay type: functional, cell-based

With `C[C@H](CCC(=O)OCc1cc(O)cc(O)c1)[C@H]1CC[C@H]2[C@@H]3[C@H](O)C[C@@H]4C[C@H](O)CC[C@]4(C)[C@H]3CC[C@]12C` as the compound, how does the IC50 [1] read?
Its IC50 is 16.3 µM.

What about the Activity [2] of the same compound?
The Activity was “Dde”.

What about the IC50 [3] of the same compound?
The IC50 was 116 µM.

And the IC50 [4]?
The IC50 was 76.9 µM.

And the IC50 [5]?
The IC50 was 64.5 µM.

And the IC50 [6]?
Its IC50 is over 200 µM.

And the inhibition at 10 µM [7]?
Its inhibition at 10 µM is 35.5%.

What about the inhibition at 25 µM [8] of the same compound?
The inhibition at 25 µM was 73.2%.

And the IC50 [9]?
Its IC50 is 40.9 µM.

What about the IC50 [10] of the same compound?
Its IC50 is 156 µM.

What about the IC50 [11] of the same compound?
The IC50 was 81.8 µM.

And the IC50 [12]?
Its IC50 is 69.4 µM.

What about the IC50 [13] of the same compound?
Its IC50 is 127 µM.

And the IC50 [14]?
The IC50 was 56.7 µM.
